Data reported in patent publication US12551563B2, “ERK5 degraders as therapeutics in cancer and inflammatory diseases” (DANA-FARBER CANCER INSTITUTE, INC., priority 2019, dated 2026).

Columns and labels:
Format in all cases: cell-based
ERK5 [1] = target: T1, ERK5 (Homo sapiens, UniProt Q13164); test: Western blot of ERK5 degradation in MOLT4 cells (dose curve); design: immunoblotted with primary antibodies against ERK5 (Cell Signaling®); endogenous in cells; host or cells: MOLT4; conditions: 5 hours, 0.1, 0.25, 0.5, or 1 μM (FIG. 5)
T1 sequence (Q13164 whole entry): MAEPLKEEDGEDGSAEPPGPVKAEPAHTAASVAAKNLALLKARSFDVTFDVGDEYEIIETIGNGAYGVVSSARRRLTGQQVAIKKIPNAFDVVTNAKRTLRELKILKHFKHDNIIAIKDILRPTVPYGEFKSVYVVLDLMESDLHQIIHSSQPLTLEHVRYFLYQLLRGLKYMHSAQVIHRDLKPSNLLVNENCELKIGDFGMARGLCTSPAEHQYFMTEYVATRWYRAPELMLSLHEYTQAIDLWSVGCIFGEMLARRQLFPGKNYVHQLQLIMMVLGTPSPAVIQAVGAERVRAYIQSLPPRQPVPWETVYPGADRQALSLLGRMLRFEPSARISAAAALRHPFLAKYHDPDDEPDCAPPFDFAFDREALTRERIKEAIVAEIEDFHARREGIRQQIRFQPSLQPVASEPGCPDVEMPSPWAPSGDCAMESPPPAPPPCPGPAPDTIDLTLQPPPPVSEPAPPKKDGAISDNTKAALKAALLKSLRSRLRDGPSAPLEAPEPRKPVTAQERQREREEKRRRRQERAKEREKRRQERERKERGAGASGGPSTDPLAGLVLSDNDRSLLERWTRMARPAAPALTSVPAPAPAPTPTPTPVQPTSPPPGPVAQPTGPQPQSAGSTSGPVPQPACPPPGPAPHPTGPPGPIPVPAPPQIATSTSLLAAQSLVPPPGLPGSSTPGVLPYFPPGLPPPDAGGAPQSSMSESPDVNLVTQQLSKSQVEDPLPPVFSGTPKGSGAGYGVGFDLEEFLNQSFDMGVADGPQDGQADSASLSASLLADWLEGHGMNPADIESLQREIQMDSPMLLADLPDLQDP
Description: (§1) MIA Paca-2 cells were treated with 0, 0.1, 1, or 10 μM of bispecific compounds 3-7 for 24 hours. Cells were then lysed in RIPA buffer (Sigma®) containing protease/phosphatase inhibitor cocktail (Roche®). The protein concentrations were measured by bicinchoninic acid assay (BCA) analysis (Pierce™). Equal amounts of protein were resolved by 4-12% Tris-Base gels (Invitrogen™), and then transferred to the Immuno-Blot PVDF membrane (BioRad), and immunoblotted with primary antibodies against ERK5 (Cell Signaling®) and […] (Cell Signaling®), and then immunoblotted with IRDye®800-labeled goat anti-rabbit IgG and IRDye®800-labeled goat anti-mouse IgG (LI-COR) secondary antibodies. The membranes were detected on Odyssey® CLx system.
(§2) MOLT4 cells were treated with 0.1, 0.25, 0.5, or 1 μM of bispecific compounds 18 and 23 for 5 hours. Cells were lysed and immunoblotted as described above with antibodies to ERK5, BRD4, and β-Actin.

ERK5 [2] = target: T1, ERK5; test: Western blot of ERK5 degradation in MOLT4 cells (0.1 or 1 μM); design: immunoblotted with primary antibodies against ERK5 (Cell Signaling®); endogenous in cells; host or cells: MOLT4; conditions: 5 hours, at 0.1 and 1 μM (FIG. 4)
Description: as §1
MOLT4 cells were treated with 0.1 or 1 μM of bispecific compounds 15-20 for 5 hours. Cells were lysed and immunoblotted as described above with antibodies to ERK5 and β-Actin.

BRD4 = target: T2, BRD4 (Homo sapiens, UniProt O60885); test: Western blot of BRD4 degradation in MOLT4 cells (dose curve); conditions: 5 hours, 0.1, 0.25, 0.5, or 1 μM (FIG. 5)
T2 construct: endogenous in cells; host or cells: MOLT4
Description: as §1, §2

ERK5 [3] = target: T1, ERK5; test: Western blot, rescue of compound 7-induced ERK5 degradation by pretreatment in MIA Paca-2 cells; design: immunoblotted with primary antibodies against ERK5 (Cell Signaling®); endogenous in cells; host or cells: MIA PaCa-2; conditions: for Rescue of ERK5 degradation induced by bispecific compound 7: then 1 μM compound 7 for 24 h (FIG. 3)
Description: as §1
MIA Paca-2 cells were pretreated with 10 μM XMD17-109 (the parental compound and known ERK5 inhibitor; available from, e.g., MedChemExpress, Cat. No. HY-15665, Monmouth Junction, N.J.), 10 μM DGY-05-180 (VHL ligand), 0.1 μM Bortezomib (a proteasome inhibitor; available from, e.g., Millipore Sigma, Cat. No. 179324-69-7, Burlington, Mass.), and 1 μM MLN4924 (a neddylation inhibitor; available from, e.g., MedChemExpress, Cat. No. HY-70062, Monmouth Junction, N.J.), for 2 h, and then treated with 1 μM bispecific compound 7 for 24 h. Cells were lysed and immunoblotted as described above with antibodies to ERK5 and GAPDH (Cell Signaling®).

ERK5 [4] = target: T1, ERK5; test: Western blot of ERK5 degradation in A375 cells; design: immunoblotted with primary antibodies against ERK5 (Cell Signaling®); endogenous in cells; host or cells: A375; conditions: 24 hours, at 1 and 10 μM (FIG. 2)
Description: as §1
A375 cells were treated with 0, 0.1, 1, or 10 μM of bispecific compounds 3, 4, and 7-9 for 24 hours. Cells were lysed and immunoblotted as described above with antibodies to ERK5 and β-Actin.

ERK5 [5] = target: T1, ERK5; test: Western blot of ERK5 degradation in MIA Paca-2 cells; design: immunoblotted with primary antibodies against ERK5 (Cell Signaling®); endogenous in cells; host or cells: MIA PaCa-2; conditions: 24 hours, at 1 and 10 μM (FIG. 1)
Description: as §1

## CCC(C)N1c2ccccc2C(=O)N(C)c2cnc(Cc3ccc(C(=O)N4CCN(CCCCCC(=O)N[C@H](C(=O)N5C[C@H](O)C[C@H]5C(=O)N[C@@H](C)c5ccc(-c6scnc6C)cc5)C(C)(C)C)CC4)cc3)nc21 (stereo partly drawn) [compound 23, (2S,4R)-1-((2S)-2-(6-(4-(4-((11-(sec-butyl)-5-methyl-6-oxo-6,11-dihydro-5H-benzo[e]pyrimido[5,4-b][1,4]diazepin-2-yl)methyl)benzoyl)piperazin-1-yl)hexanamido)-3,3-dimethylbutanoyl)-4-hydroxy-N-((S)-1-(4-(4-methylthiazol-5-yl)phenyl)ethyl)pyrrolidine-2-carboxamide]
ERK5 [1]
  ERK5 degradation (Western blot): induced the degradation of ERK5

## Cc1ncsc1-c1ccc([C@H](C)NC(=O)[C@@H]2C[C@@H](O)CN2C(=O)[C@@H](NC(=O)CCCCCN2CCN(C(=O)c3ccc(Nc4ncc5c(n4)N(C4CCCC4)c4ccccc4C(=O)N5C)cc3)CC2)C(C)(C)C)cc1 [compound 18, (2S,4R)-1-((S)-2-(6-(4-(4-((11-cyclopentyl-5-methyl-6-oxo-6,11-dihydro-5H-benzo[e]pyrimido[5,4-b][1,4]diazepin-2-yl)amino)benzoyl)piperazin-1-yl)hexanamido)-3,3-dimethylbutanoyl)-4-hydroxy-N-((S)-1-(4-(4-methylthiazol-5-yl)phenyl)ethyl)pyrrolidine-2-carboxamide]
ERK5 [2]
  ERK5 degradation (Western blot): induced the degradation of ERK5
BRD4
  BRD4 degradation (Western blot): induced the degradation of ERK5 and BRD4
ERK5 [1]
  ERK5 degradation (Western blot): induced the degradation of ERK5

## CCOc1cc(C(=O)N2CCC(N3CCN(C)CC3)CC2)ccc1Nc1ncc2c(n1)N(C1CCCC1)c1ccccc1C(=O)N2C [XMD17-109]
ERK5 [3]; pretreated 2 h with 10 μM
  Rescue of ERK5 degradation induced by bispecific compound 7: rescued the ERK5 degradation induced by bispecific compound 7

## NS(=O)(=O)OC[C@@H]1C[C@@H](n2ccc3c(N[C@H]4CCc5ccccc54)ncnc32)C[C@@H]1O [MLN4924]
ERK5 [3]; pretreated 2 h with 1 μM
  Rescue of ERK5 degradation induced by bispecific compound 7: rescued the ERK5 degradation induced by bispecific compound 7

## Cc1ncsc1-c1ccc([C@H](C)NC(=O)[C@@H]2C[C@@H](O)CN2C(=O)[C@@H](NC(=O)CCCCCCCNC(=O)c2ccc(Nc3ncc4c(n3)N(C3CCCC3)c3ccccc3C(=O)N4C)cc2)C(C)(C)C)cc1 [compound 7, (2S,4R)-1-((S)-2-(8-(4-((11-cyclopentyl-5-methyl-6-oxo-6,11-dihydro-5H-benzo[e]pyrimido[5,4-b][1,4]diazepin-2-yl)amino)benzamido)octanamido)-3,3-dimethylbutanoyl)-4-hydroxy-N-((S)-1-(4-(4-methylthiazol-5-yl)phenyl)ethyl)pyrrolidine-2-carboxamide]
ERK5 [3]; 1 μM for 24 h after pretreatment with competitors/inhibitors (FIG. 3)
  Dependence of ERK5 degradation (mechanism): both ligand and proteasome dependent
ERK5 [4]
  ERK5 degradation (Western blot): induced the degradation of ERK5
ERK5 [5]
  ERK5 degradation (Western blot): induced the degradation of ERK5

## CC(C)C[C@H](NC(=O)[C@H](Cc1ccccc1)NC(=O)c1cnccn1)B(O)O [Bortezomib]
ERK5 [3]; pretreated 2 h with 0.1 μM
  Rescue of ERK5 degradation induced by bispecific compound 7: rescued the ERK5 degradation induced by bispecific compound 7
